Residues, ends and D or L forms follow the SMILES beside them. *: point of attachment. Cbz = O=C(OCc1ccccc1)*; CH2F = FC*
Key:
RGC-5 cells [1] = assay: Morphological differentiation and neurite count of RGC-5 cells; conditions: for morphological evidence of differentiation: apoptosis inducer; for rounding of the cell soma: specific kinase inhibitors on RGC-5 cells
Procedure: Cell culture: RGC-5 cells were cultured in Dulbecco's modification of Eagle's medium (DMEM; Mediatech, Inc.; Herndon, Calif.) containing 1 mg/L glucose with L-glutamine, supplemented with 10% FBS, 100 U/ml penicillin and 100 μg/ml streptomycin. Cells were incubated at 37° C. in humidified 5% CO2.
Pharmacological agents were used to induce or to inhibit various signaling pathways within RGC-5 cells. Cells were replated on 12 mm round cover glass in 24 well plates 24 hours prior to pharmacological treatment. Drugs were added for varying lengths of time and then processed for immunocytochemistry.
Cell morphology: Photomicrographs were taken at 400× total magnification with Nomarski optics, digitized as above, and stored as JPEG images. The pictures were then batch analyzed off-line to assess the development of neurites. A total of fifty cells from each condition were analyzed. The fifty cells assessed for neurite outgrowth in each condition were selected to include all cells in each photomicrograph for which the neurite tree was visible, and continuing with a new photomicrograph until fifty cells were analyzed. Projections from the cell were classified as neurites if they were equal or greater in length than the cell soma. Only branches arising from the soma were counted. The neurite counts were expressed as mean±S.E.M.

RGC-5 cells [2] = assay: Nuclear condensation changes of apoptosis (Hoechst 33258); type: cell-based, rat; conditions: twenty-four hour incubation, Hoechst 33258 10 μg/ml for thirty minutes
Rho-Kinase = conditions: cited from earlier work
PKA = conditions: read-out: Ki protein kinase A; cited from earlier work
PKR T451 = assay: Kinetworks KPSS 2.1 phosphorylation screen, PKR T451; type: cell-based, rat; conditions: 1 μM for 5 minutes
Procedure: (§1) Analysis of kinasephosphorylation targets: Total cell lysates were prepared as described in Zhang H, et al., J Biol Chem 276:6905-6908 (2001). Cells were washed with ice-cold PBS, scraped, and centrifuged at 3,200 g for five minutes. The pellets were resuspended in lysis buffer (Kinexus Bioinformatics; Vancouver, BC, Canada) supplemented with 5 mM pepstatin A (Roche; Indianapolis, Ind.), and Complete mini protease inhibitor cocktail (Roche). The suspensions were sonicated on ice for two 15-second bursts, followed by centrifugation at 100,000 g for 30 minutes at 4° C. […] Bradford M M, Anal Biochem 72:248-254 (1976). These were then transferred to nitrocellulose membranes. Using a twenty-lane multiblotter (BioRad; Hercules, Calif.), the membranes were incubated with different mixtures of up to three antibodies per lane that react with a distinct subset of at least thirty-seven known phosphorylated sites of cell signaling proteins of distinct molecular masses. After further incubation with a mixture of relevant HRP conjugated secondary antibodies (Santa Cruz Biotechnology), the blots were developed using ECL Plus reagent (Amersham Pharmacia; Piscataway, N.J.) and signals quantified using Quantity One software (BioRad). Detailed information and protocols of the Kinetworks™ analysis can be found at the Kinexus Bioinformatics Corporations website.

Thy-1 [3] = assay: Immunocytochemistry for Thy-1 in RGC-5 cells; type: cell-based, rat; conditions: differentiated vs undifferentiated cells, twenty-four hours
Procedure: (§2) Immunocytochemistry: Differentiated RGC-5 cells plated on coverslips were fixed with 4% paraformaldehyde (Fisher) in PBS, pH 7.2 for 20 minutes at room temperature, rapidly rinsed with Tris-buffered saline (TBS; 100 mM Tris, pH 7.6, 0.9% NaCl) 3 times for a few seconds each and 2 times for 5 minutes each, and blocked with 5% normal goat serum (BioWhittaker) in TBS for 30 minutes at room temperature. The NMDA-R1 receptor was detected by incubating with purified mouse monoclonal anti-NMDA-R1 antibody (BD Biosciences; San Jose, Calif.; clone 54.1) at 2.5 μg/ml overnight at room temperature, followed by Alexa Fluor™ 594 goat anti-mouse IgG at 10 μg/ml in blocking buffer at room temperature for 90 minutes. Alexa Fluor™ 594 fluorescence was detected with a Texas Red filter set (excitation 560±20 nm, dichroic 595 nm long-pass, emission 630±30 nm). Thy-1 was detected after fixing and blocking by incubating with rabbit anti-Thy-1 polyclonal IgG (Santa Cruz Biotechnology; Santa Cruz, Calif.) at 20 μg/ml overnight at 4° C., followed by Alexa Fluor 488 goat anti-rabbit IgG at 4 μg/ml at room temperature for 60 minutes. Alexa Fluor 488 fluorescence was detected with a FITC filter set (excitation 470±20 nm, dichroic 505 nm long-pass, emission 540±20 nm) filter set. […]

[4] = system: focal adhesion kinase (FAK) S722; assay: Kinetworks KPSS 2.1 phosphorylation screen, FAK S722; type: cell-based, rat; conditions: 1 μM for 5 minutes
Procedure: (§3) Cells were washed with ice-cold PBS, scraped, and centrifuged at 3,200 g for five minutes. The pellets were resuspended in lysis buffer (Kinexus Bioinformatics; Vancouver, BC, Canada) supplemented with 5 mM pepstatin A (Roche; Indianapolis, Ind.), and Complete mini protease inhibitor cocktail (Roche). The suspensions were sonicated on ice for two 15-second bursts, followed by centrifugation at 100,000 g for 30 minutes at 4° C. […] These were then transferred to nitrocellulose membranes. Using a twenty-lane multiblotter (BioRad; Hercules, Calif.), the membranes were incubated with different mixtures of up to three antibodies per lane that react with a distinct subset of at least thirty-seven known phosphorylated sites of cell signaling proteins of distinct molecular masses. After further incubation with a mixture of relevant HRP conjugated secondary antibodies (Santa Cruz Biotechnology), the blots were developed using ECL Plus reagent (Amersham Pharmacia; Piscataway, N.J.) and signals quantified using Quantity One software (BioRad). Detailed information and protocols of the Kinetworks™ analysis can be found at the Kinexus Bioinformatics Corporations website.

RGC-5 cells [5] = assay: Whole-cell voltage-clamp recording of RGC-5 cells; type: cell-based, rat; conditions: for conductance of outward currents at +90 mV: after leak subtraction
Procedure: No series resistance compensation was used. Currents were low-pass filtered at 1-5 kHz with a four-pole Bessel filter, and digitized at a rate no less than twice the filter frequency. […] Analysis and curve fitting was also performed using AxoGraph.
Voltage-gated currents were studied by applying 10 ms voltage steps from −100 to +90 mV in 10 mV increments, from a holding potential of −60 mV. This protocol was run 2-6 times on each cell and the currents evoked at each potential were averaged. Passive leak and capacitive currents were removed by scaling the average current evoked at −70 mV, and subtracting the result from the average current obtained at each voltage. Current amplitudes were measured at steady-state (i.e., near the end of the voltage step), and the slope conductance was computed as the difference between successive amplitudes, divided by the 10 mV step increment.

c-Kit Y703 = assay: Kinetworks KPSS 2.1 phosphorylation screen, c-Kit Y703; type: cell-based, rat; conditions: 1 μM for 5 minutes
Procedure: as §1

Thy-1 [6] = assay: Immunoblot analysis of Thy-1 in RGC-5 cells; conditions: 316 nM for three days
Procedure: (§4) After transfer, the membrane was blocked with 5% non-fat milk in TBS (pH 8.0) for 30-60 minutes, and then probed with primary antibodies to RGC marker proteins in blocking buffer. Antibodies used included purified rabbit polyclonal anti-microtubule-associated protein 2 (1:2000; Chemicon; Temecula, Calif.), polyclonal rabbit anti-Thy-1 (1:100; Santa Cruz Biotechnology), and polyclonal rabbit anti-actin (1:1000; Sigma). Blots were rinsed 3 times with TBS containing 0.05% Tween-20 (Fisher Scientific), then washed 5 times for 10 minutes each at room temperature on an orbital shaker. Secondary antibodies used were purified HRP-conjugated goat anti-rabbit IgG and purified HRP-conjugated goat anti-mouse IgG (1:5000; Jackson Immunoresearch Laboratories; West Grove, Pa.), and were incubated for 1 hour at room temperature, followed by 3 rinses and five 10 minute washes with TBS containing Tween-20 at room temperature on an orbital shaker. […] The blots were then exposed to Kodak BioMax XAR film (Eastman Kodak Company; Rochester, N.Y.) and developed. The films were scanned at 1600 dpi and band density was determined by comparing total intensity in an area containing the band of interest to the intensity of an equal size area of background using NIH ImageJ software. Band density readings are presented with respect to the density of the band from the control, untreated cell condition.

CDK1 T14/Y15 = assay: Kinetworks KPSS 2.1 phosphorylation screen, CDK1 T14/Y15; type: cell-based, rat; conditions: 1 μM for 5 minutes
Procedure: as §1

RGC-5 cells [7] = assay: Cell number by MTT assay; type: cell-based, rat
Procedure: Cell number: Cells were plated in 96 well plates and 3-(4,5-dimethylthiazol-2-yl)-2,5-diphenyltetrazolium bromide (MTT) added immediately to a final concentration of 500 μg/ml. Plates were incubated for 5 hours at 37° C. The media was then replaced with 200 μl of DMSO, which was pipetted up and down to dissolve the formazan crystals, and the plate incubated at 37° C. for 5 minutes. Absorbance was measured at 550 nm on a THERMOmax™ microplate reader (Molecular Devices; Sunnyvale, Calif.). All readings were normalized to a standard curve derived from known numbers of cells.

NMDA-R1 = assay: Immunocytochemistry for NMDA-R1 in RGC-5 cells; type: cell-based, rat; conditions: differentiated vs undifferentiated cells, twenty-four hours
Procedure: as §2

MEK1 S298 = assay: Kinetworks KPSS 2.1 phosphorylation screen, MEK1 S298; type: cell-based, rat; conditions: 1 μM for 5 minutes
Procedure: as §3

[8] = system: microtubule-associated protein 2 (MAP-2); assay: Immunoblot analysis of MAP-2 in RGC-5 cells; conditions: 316 nM for three days
Procedure: as §4

ERK1 T202/Y204 = assay: Kinetworks KPSS 2.1 phosphorylation screen, ERK1 T202/Y204; type: cell-based, rat; conditions: 1 μM for 5 minutes
Procedure: as §1

[9] = 1 hr [24 hr], cells with large conductance

With `C[C@H](CCC(=O)O)C[C@H](C)C[C@H](C)C(=O)/C=C(\O)[C@H](C)C[C@H](C)C/C=C/[C@@H](C)[C@@H](O)[C@@H](C)[C@@H](O)C[C@@H]1CC[C@@](C)([C@H]2CC[C@@](C)([C@@H](C)O)O2)O1` [ionomycin] the “morphological evidence of differentiation” value (RGC-5 cells [1]; 20 μM) was “None resulted in morphological evidence of differentiation” and the “nuclear condensation (Hoechst 33258)” value (RGC-5 cells [2]) was “induced nuclear condensation”.
For `C/C=C(/C)C(=O)O[C@H]1C(C)=C2[C@H]([C@@H]1OC(=O)CCCCCCC)[C@@](C)(OC(C)=O)C[C@H](OC(=O)CCC)[C@@]1(O)[C@H]2OC(=O)[C@@]1(C)O` [thapsigargin, Thapsigargin], the cell shape (RGC-5 cells [1]; 10 μM) was “did cause cells to become more spindle-shaped” and the “morphological evidence of differentiation” value (RGC-5 cells [1]; 10 μM) was “None resulted in morphological evidence of differentiation”.
With `Cc1cncc2cccc(S(=O)(=O)N3CCCNC[C@@H]3C)c12` [H-1152] the “differentiation-inducing activity in RGC-5 cells” value (from here on “differentiation-inducing activity”) (RGC-5 cells [1]) was “weak differentiation inducers”, the neurites expressed (RGC-5 cells [1]; RGC-5 cells, 1 μM) was 1.06±0.15 neurites and the “rounding of the cell soma” value (RGC-5 cells [1]) was “did not produce rounding of the cell soma”. The Ki (Rho-Kinase) was 1.6 nM.
With `COC(=O)C[C@H](NC(=O)[C@H](C)NC(=O)[C@@H](NC(=O)OCc1ccccc1)C(C)C)C(=O)CF` [ZVAD-fmk] (Cbz-Val-Ala-Asp(OMe)-CH2F) the “effect of pretreatment on differentiation with SS” value (RGC-5 cells [1]) was “did not inhibit differentiation with SS” and the “differentiation of undifferentiated cells by the agent alone” value (RGC-5 cells [1]; without staurosporine) was “did not differentiate”.
For `O=S(=O)(NCCNC/C=C/c1ccc(Br)cc1)c1cccc2cnccc12` [H-89], the Ki (PKA) is given as 50 nM, the “differentiation-inducing activity” value (RGC-5 cells [1]) is given as “weak differentiation inducers” and the neurites expressed (RGC-5 cells [1]; RGC-5 cells, 56.2 μM) is given as 1.80±0.16 neurites. The “rounding of the cell soma” value (RGC-5 cells [1]) was “did not produce rounding of the cell soma”.
In the case of `C=C(C)[C@H]1Cc2c(ccc3c2O[C@@H]2COc4cc(OC)c(OC)cc4[C@@H]2C3=O)O1` [rotenone], the “morphological evidence of differentiation” value (RGC-5 cells [1]; 10 μM) is reported as “None resulted in morphological evidence of differentiation”.
For `CN[C@@H]1C[C@H]2O[C@@](C)([C@@H]1OC)n1c3ccccc3c3c4c(c5c6ccccc6n2c5c31)C(=O)NC4` [staurosporine], the “decrease in phosphorylation of PKR T451 vs control” value (PKR T451) was 100%, the Thy-1 labeling (Thy-1 [3]) was “visibly more intense staining” and the “increase in phosphorylation of S722 of FAK vs sham-treated cells” value [4] was 90%. The “conductance of outward currents at +90 mV” value (“conductance … at +90 mV” below) (RGC-5 cells [5]; 1 hr [24 hr], untreated 3.1±0.5) was 14±5 nS, the “apparent half-activation voltage (Boltzmann fit)” value (RGC-5 cells [5]; [9]) was “+48 mV” and the “maximal conductance (Boltzmann fit)” value (RGC-5 cells [5]; [9]) was 26 nS. For the same compound, the apparent capacitance (RGC-5 cells [5]; 1 hr [24 hr], untreated 28±2) was 31±5 pF, the resting potential (RGC-5 cells [5]; 1 hr [24 hr], untreated −34±0.5) was −27±9 mV and the resting potential (RGC-5 cells [5]; 1 hr [48 hr]) was −9±6 mV. For the same compound, the “conductance … at +90 mV” value (RGC-5 cells [5]; 1 hr [48 hr]) was 7±3 nS, the input resistance (RGC-5 cells [5]; 1 hr [48 hr], n=4) was 322±89 MΩ and the apparent capacitance (RGC-5 cells [5]; 1 hr [48 hr], p<0.05) was 44±3 pF. For the same compound, the apparent capacitance (RGC-5 cells [5]; 22 hr [2 hr]) was 38±3, the resting potential (RGC-5 cells [5]; 22 hr [2 hr]) was −11±3 and the “conductance … at +90 mV” value (RGC-5 cells [5]; 22 hr [2 hr]) was 5±3 nS. For the same compound, the “increase in phosphorylation of c-Kit Y703 vs control” value (c-Kit Y703) was 43%, the “Thy-1 level (Western blot)” value (Thy-1 [6]) was “increased levels” and the “increase in phosphorylation of CDK1 T14/Y15 vs control” value (CDK1 T14/Y15) was 64%. The “cell number (MTT)” value (RGC-5 cells [7]; 1 hour after culture) was 7133±266 cells, the “cell number (MTT)” value (RGC-5 cells [7]; twenty-four hours) was 10,094±1023 cells and the NMDA-R1 labeling (NMDA-R1) was “visibly more intense staining”. For the same compound, the “differentiation-inducing activity” value (RGC-5 cells [1]) was “strong differentiation inducer”, the neurite branching (RGC-5 cells [1]; 316 nM) was “minimally branched neurites” and the “differentiation after short exposure” value (RGC-5 cells [1]; 1 μM for sixty seconds, then fresh media until twenty-four hours from treatment) was “definite morphological signs of differentiation”. For the same compound, the “concentrations frequently toxic (necrotic cell body, blebbing and disruption of the neurite tree)” value (RGC-5 cells [1]; RGC-5 cells) was “higher than 1.78 μM”, the neurites per cell (RGC-5 cells [1]; RGC-5 cells, 1 μM, average±SEM from 50 cells) was 2.94±0.11 neurites per cell and the “average and total process length” value (RGC-5 cells [1]; high (3.16 μM) concentration) was “average and total process length decreased somewhat”. For the same compound, the neurite branching (RGC-5 cells [1]; high (3.16 μM) concentration) was “neurite branching was greater”, the “average and total neurite outgrowth” value (RGC-5 cells [1]; moderate (1 μM) concentration) was “promoted longer average and total neurite outgrowth” and the “decrease in phosphorylation of MEK1 S298 vs control” value (MEK1 S298) was 100%. For the same compound, the “nuclear condensation (Hoechst 33258)” value (RGC-5 cells [2]) was “the same as controls, with finely granular nuclei that were not compacted”, the “MAP-2 level (Western blot)” value [8] was “increased levels” and the “phosphorylation of ERK1 T202/Y204 vs control” value (ERK1 T202/Y204) was “not present in control”.

Reference: patent US7303915B2, “In vitro-differentiated retinal ganglion cells and method for producing same” (Wisconsin Alumni Research Foundation, priority 2005, dated 2007)
